Measured values as given in ChEMBL document CHEMBL1208672, “Novel 8-arylated purines as inhibitors of glycogen synthase kinase” (Eur J Med Chem, 2010).

Legend:
[1] = target: T1, Cyclin-dependent kinase 5/CDK5 activator 1 (Homo sapiens) (UniProt Q00535+Q15078); test: Inhibition of CDK5/p25 assessed as residual activity at 1 uM relative to control; assay type: protein-complex assay
[2] = target: Glycogen synthase kinase-3 alpha (Homo sapiens) (UniProt P49840); test: Inhibition of human GSK3alpha assessed as residual activity at 1 uM relative to control
[3] = target: T2, Glycogen synthase kinase-3 beta (Homo sapiens, UniProt P49841)
Target sequence in this assay (P49841 whole entry): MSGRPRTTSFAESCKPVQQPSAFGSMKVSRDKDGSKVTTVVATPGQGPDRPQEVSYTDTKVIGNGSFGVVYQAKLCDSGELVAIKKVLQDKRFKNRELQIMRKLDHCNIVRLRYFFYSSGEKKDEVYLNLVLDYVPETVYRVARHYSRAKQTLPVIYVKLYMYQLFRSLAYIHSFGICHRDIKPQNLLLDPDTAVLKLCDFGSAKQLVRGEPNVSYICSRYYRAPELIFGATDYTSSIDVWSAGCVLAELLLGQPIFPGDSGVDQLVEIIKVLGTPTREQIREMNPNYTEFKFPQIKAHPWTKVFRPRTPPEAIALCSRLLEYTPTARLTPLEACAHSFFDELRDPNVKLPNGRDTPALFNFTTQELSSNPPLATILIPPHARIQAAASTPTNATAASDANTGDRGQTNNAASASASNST

[4] = target: T2, Glycogen synthase kinase-3 beta; test: Inhibition of human GSK3-beta assessed as residual activity at 10 uM relative to control
Target sequence in this assay (P49841 whole entry, looked up): as the sequence (P49841 whole entry) above

[5] = target: Insulin-like growth factor 1 receptor (Homo sapiens) (UniProt P08069); test: Inhibition of IGF1R assessed as residual activity at 10 uM relative to control
[6] = target: Casein kinase II subunit alpha (Homo sapiens) (UniProt P68400); test: Inhibition of CK2alpha assessed as residual activity at 10 uM relative to control
[7] = target: Casein kinase I isoform alpha (Homo sapiens) (UniProt P48729); test: Inhibition of CK1alpha1 assessed as residual activity at 10 uM relative to control
[8] = target: MAP kinase-activated protein kinase 2 (Homo sapiens) (UniProt P49137); test: Inhibition of MAPKAPK2 assessed as residual activity at 10 uM relative to control
[9] = target: Mitogen-activated protein kinase 8 (Homo sapiens) (UniProt P45983); test: Inhibition of JNK1 assessed as residual activity at 10 uM relative to control
[10] = target: T1, Cyclin-dependent kinase 5/CDK5 activator 1 (Homo sapiens); test: Inhibition of CDK5/p25 assessed as residual activity at 10 uM relative to control; assay type: protein-complex assay
[11] = target: Epidermal growth factor receptor (Homo sapiens) (UniProt P00533); test: Inhibition of EGFR assessed as residual activity at 10 uM relative to control
[12] = target: T3, Tyrosine-protein kinase receptor TYRO3 (Homo sapiens) (UniProt Q06418); test: Inhibition of TYRO3/SKY assessed as residual activity at 10 uM relative to control
T3 sequence (whole entry): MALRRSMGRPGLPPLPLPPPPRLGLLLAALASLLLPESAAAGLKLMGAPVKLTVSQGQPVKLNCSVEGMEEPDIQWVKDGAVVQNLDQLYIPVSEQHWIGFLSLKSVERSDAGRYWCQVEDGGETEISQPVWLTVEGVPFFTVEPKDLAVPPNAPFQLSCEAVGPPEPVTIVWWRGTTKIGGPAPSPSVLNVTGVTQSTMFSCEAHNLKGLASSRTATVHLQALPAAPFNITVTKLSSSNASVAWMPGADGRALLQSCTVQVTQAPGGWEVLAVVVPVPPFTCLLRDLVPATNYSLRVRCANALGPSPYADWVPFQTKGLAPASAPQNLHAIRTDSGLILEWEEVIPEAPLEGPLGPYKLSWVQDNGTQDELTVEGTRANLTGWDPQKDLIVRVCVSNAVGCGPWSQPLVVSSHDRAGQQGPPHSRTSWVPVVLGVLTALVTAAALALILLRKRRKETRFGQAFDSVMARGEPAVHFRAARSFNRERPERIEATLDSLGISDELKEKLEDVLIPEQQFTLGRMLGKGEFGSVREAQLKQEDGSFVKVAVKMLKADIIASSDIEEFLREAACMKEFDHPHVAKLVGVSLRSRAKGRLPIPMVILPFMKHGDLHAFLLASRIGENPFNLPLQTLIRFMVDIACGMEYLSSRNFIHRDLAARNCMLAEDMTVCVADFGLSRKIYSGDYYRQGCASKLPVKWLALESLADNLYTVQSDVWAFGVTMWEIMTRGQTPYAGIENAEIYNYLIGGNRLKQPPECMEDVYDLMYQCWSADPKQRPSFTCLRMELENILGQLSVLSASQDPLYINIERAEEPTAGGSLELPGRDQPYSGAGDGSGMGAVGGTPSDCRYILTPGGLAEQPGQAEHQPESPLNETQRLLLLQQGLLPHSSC

[13] = target: Mitogen-activated protein kinase 3 (Homo sapiens) (UniProt P27361); test: Inhibition of ERK1 at 10 uM relative to control; design: scale not given: the % may be the effect or the level left
Sequence of Mitogen-activated protein kinase 3 (Homo sapiens) (P27361 whole entry): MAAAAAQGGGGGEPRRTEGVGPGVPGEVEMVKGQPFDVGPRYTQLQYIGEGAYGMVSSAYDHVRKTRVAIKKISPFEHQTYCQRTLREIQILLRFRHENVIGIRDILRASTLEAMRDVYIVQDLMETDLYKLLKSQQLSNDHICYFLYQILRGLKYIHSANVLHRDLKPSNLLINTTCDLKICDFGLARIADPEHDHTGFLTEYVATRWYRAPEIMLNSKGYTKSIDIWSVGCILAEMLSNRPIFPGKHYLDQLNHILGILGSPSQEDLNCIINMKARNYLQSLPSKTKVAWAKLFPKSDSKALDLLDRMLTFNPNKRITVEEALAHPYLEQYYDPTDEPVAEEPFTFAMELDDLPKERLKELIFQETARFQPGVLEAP

Sequence of Glycogen synthase kinase-3 alpha (Homo sapiens) (P49840 2-483 limits assumed): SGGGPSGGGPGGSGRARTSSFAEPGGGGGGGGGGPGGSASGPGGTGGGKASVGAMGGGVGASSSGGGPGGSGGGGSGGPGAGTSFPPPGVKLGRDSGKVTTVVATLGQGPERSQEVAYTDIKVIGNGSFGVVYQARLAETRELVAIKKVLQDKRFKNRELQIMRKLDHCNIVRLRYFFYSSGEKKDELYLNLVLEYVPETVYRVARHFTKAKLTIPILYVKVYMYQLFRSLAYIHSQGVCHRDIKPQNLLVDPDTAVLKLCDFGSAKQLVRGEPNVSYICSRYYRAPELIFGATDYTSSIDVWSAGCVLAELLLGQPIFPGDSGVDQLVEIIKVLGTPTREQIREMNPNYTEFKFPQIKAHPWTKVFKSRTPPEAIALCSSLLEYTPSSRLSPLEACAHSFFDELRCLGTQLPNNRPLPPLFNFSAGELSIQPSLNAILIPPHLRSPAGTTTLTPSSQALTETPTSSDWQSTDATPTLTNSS
T1 sequence (Q00535 whole entry): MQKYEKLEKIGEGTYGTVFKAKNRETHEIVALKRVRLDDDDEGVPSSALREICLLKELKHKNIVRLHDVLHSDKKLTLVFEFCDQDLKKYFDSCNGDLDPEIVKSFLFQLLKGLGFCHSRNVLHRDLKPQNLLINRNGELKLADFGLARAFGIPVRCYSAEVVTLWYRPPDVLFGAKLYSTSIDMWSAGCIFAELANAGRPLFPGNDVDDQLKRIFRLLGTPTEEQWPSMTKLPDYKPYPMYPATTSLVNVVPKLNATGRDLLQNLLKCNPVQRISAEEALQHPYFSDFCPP
T1 sequence (Q15078 99-307 partner limits assumed): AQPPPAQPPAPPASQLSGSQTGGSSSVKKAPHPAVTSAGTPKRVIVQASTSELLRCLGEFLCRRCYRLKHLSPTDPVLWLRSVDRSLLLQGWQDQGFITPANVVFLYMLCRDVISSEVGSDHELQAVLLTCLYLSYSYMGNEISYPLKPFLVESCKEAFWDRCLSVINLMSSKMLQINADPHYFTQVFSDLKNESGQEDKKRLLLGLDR
Sequence of Casein kinase I isoform alpha (Homo sapiens) (P48729 2-337 limits assumed): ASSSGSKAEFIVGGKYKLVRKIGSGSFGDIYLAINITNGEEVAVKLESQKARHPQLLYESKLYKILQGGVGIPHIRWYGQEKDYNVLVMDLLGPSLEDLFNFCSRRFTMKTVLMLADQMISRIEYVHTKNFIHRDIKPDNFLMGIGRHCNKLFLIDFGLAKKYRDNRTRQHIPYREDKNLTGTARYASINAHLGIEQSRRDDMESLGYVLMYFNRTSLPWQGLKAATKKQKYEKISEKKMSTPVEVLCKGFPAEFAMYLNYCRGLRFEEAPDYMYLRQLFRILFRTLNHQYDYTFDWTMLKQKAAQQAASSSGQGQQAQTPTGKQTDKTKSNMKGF
Sequence of MAP kinase-activated protein kinase 2 (Homo sapiens) (P49137 whole entry, looked up): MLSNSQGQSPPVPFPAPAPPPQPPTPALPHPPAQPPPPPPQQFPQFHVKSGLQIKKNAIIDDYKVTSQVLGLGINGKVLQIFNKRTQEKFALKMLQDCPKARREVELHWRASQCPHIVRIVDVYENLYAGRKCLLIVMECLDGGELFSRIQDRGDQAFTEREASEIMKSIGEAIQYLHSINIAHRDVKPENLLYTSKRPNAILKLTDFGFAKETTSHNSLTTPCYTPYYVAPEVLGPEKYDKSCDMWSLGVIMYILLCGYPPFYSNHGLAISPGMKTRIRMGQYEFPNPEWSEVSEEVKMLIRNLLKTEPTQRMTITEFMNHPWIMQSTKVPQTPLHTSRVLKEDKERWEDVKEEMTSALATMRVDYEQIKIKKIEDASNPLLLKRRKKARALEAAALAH
Sequence of Mitogen-activated protein kinase 8 (Homo sapiens) (P45983 whole entry): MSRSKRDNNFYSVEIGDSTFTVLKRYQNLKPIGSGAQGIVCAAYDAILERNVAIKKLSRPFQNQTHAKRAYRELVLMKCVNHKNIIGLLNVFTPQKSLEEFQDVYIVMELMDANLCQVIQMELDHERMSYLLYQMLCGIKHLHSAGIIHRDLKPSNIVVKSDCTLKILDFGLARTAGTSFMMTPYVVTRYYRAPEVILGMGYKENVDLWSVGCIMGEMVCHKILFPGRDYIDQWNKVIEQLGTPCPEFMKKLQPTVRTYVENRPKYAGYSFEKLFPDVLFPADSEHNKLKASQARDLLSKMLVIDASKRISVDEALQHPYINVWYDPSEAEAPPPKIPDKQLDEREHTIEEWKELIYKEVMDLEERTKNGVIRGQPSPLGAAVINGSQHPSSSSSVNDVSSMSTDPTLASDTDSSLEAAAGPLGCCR
Sequence of Epidermal growth factor receptor (Homo sapiens) (P00533 whole entry): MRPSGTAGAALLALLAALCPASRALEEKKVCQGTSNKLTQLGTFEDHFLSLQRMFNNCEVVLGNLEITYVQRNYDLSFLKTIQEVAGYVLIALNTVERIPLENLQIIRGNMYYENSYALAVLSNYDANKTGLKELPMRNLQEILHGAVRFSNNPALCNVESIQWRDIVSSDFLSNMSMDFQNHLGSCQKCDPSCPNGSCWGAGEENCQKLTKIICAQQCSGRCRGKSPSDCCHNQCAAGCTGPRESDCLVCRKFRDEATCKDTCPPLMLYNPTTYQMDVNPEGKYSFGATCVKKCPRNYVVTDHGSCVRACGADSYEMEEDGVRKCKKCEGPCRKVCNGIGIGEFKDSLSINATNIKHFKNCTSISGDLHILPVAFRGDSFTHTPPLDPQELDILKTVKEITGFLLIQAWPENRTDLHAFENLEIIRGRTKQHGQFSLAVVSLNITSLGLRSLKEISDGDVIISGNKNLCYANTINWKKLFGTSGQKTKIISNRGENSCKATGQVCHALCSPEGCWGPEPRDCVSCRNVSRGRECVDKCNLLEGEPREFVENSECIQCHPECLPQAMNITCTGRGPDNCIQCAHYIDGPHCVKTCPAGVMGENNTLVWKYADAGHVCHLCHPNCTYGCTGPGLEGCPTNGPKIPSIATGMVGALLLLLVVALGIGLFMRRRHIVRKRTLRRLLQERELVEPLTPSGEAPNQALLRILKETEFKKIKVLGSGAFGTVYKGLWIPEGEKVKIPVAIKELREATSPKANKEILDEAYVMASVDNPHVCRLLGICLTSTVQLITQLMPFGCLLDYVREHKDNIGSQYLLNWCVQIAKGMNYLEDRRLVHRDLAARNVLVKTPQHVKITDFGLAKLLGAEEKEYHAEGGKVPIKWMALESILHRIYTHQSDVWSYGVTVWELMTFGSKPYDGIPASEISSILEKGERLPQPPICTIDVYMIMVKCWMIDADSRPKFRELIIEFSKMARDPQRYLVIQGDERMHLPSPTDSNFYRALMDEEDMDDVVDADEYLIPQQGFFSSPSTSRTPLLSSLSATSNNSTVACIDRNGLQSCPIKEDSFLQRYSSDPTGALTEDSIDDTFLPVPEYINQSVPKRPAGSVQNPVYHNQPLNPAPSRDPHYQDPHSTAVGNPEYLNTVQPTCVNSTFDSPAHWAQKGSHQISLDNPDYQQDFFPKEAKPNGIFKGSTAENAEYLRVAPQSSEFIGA
Sequence of Casein kinase II subunit alpha (Homo sapiens) (P68400 whole entry, looked up, canonical isoform): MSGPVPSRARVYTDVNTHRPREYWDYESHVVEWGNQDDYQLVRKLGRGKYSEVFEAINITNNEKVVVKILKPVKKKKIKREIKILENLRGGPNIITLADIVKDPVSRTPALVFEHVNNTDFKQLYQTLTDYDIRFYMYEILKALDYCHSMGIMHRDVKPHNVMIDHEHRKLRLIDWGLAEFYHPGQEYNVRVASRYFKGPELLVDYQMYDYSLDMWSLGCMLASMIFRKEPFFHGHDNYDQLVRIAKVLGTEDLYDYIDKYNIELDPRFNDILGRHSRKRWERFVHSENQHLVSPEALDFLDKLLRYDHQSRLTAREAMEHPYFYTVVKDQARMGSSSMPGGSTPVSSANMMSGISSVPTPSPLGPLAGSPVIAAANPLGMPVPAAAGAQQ

Row | Activity [1] [%] | Activity [2] [%] | Compound | other results
1 | 103 | 30 | N#Cc1cccc(-c2nc3c(NC(=O)C4CC4)ncnc3[nH]2)c1 | IC50 [3]: 781 nM
2 | 101 | 34 | CCCCC(=O)Nc1ncnc2[nH]c(-c3cccc(C#N)c3)nc12 | –
3 | 84 | – | c1ccc(CNc2ncnc3[nH]c(-c4ccccc4)nc23)cc1 | –
4 | 100 | 83 | O=C(Nc1ncnc2[nH]c(-c3ccc4ccccc4c3)nc12)c1ccccc1 | –
5 | 107 | 43 | COc1ccc(C(=O)Nc2ncnc3[nH]c(-c4cccnc4)nc23)cc1 | –
6 | 93 | – | COc1ccc(CNc2ncnc3[nH]c(-c4ccccc4)nc23)cc1 | –
7 | 99 | – | CC(C)C(=O)Nc1ncnc2[nH]c(-c3ccccc3)nc12 | –
8 | 101 | – | O=C(Nc1ncnc2[nH]c(-c3ccc4ccccc4c3)nc12)C1CC1 | Activity [4]: 18.4%; Activity [5]: 100%; Activity [6]: 59.5%; Activity [7]: 91.9%; Activity [8]: 101%; Activity [9]: 99.2%; Activity [10]: 91.4%; Activity [11]: 91.6%; Activity [12]: 78.2%; Activity [13]: 99.4%
9 | 100 | 55 | O=C(Nc1ncnc2[nH]c(/C=C/c3ccccc3)nc12)C1CC1 | –
10 | 100 | 17 | O=C(Nc1ncnc2[nH]c(-c3cccc(Cl)c3)nc12)C1CC1 | IC50 [3]: 365 nM
11 | 102 | – | CC(C)CC(=O)Nc1ncnc2[nH]c(-c3ccccc3)nc12 | –
12 | 103 | – | CCCCC(=O)Nc1ncnc2[nH]c(-c3ccccc3)nc12 | –
13 | 98 | 49 | CC(=O)Nc1ncnc2[nH]c(-c3ccc4ccccc4c3)nc12 | –
14 | 67 | – | O=C(Nc1ncnc2[nH]c(-c3ccccc3)nc12)C1CCCCN1 (centres undefined) | –
15 | 102 | 60 | O=C(Nc1ncnc2[nH]c(-c3cccc(Cl)c3)nc12)c1ccccc1 | –
16 | 102 | 31 | CCCCC(=O)Nc1ncnc2[nH]c(-c3ccc4ccccc4c3)nc12 | IC50 [3]: > 20000 nM
17 | 85 | – | CN(C)c1ncnc2[nH]c(-c3ccccc3)nc12 | –
18 | 96 | – | O=C(Nc1ncnc2[nH]c(-c3ccccc3)nc12)C1CC1 | –
19 | 63 | 5 | c1ccc(Nc2ncnc3[nH]c(-c4ccccc4)nc23)cc1 | Activity [4]: 18.6%; Activity [5]: 96.2%; Activity [6]: 77%; Activity [7]: 100%; Activity [8]: 78.2%; Activity [9]: 93.3%; Activity [10]: 59.8%; Activity [11]: 32.7%; Activity [12]: 96.7%; Activity [13]: 110%
20 | 93 | – | O=C(Nc1ncnc2[nH]c(-c3ccccc3)nc12)C1CCCN1 (centres undefined) | –
21 | 103 | 79 | CC(=O)Nc1ncnc2[nH]c(-c3cccc(C#N)c3)nc12 | –
22 | 84 | – | c1ccc(-c2nc3c(NCc4cccnc4)ncnc3[nH]2)cc1 | –
23 | 63 | 2 | N#Cc1cccc(-c2nc3c(Nc4ccccc4)ncnc3[nH]2)c1 | –
24 | 54 | – | c1ccc(-c2nc3c(OC4CCCC4)ncnc3[nH]2)cc1 | –
25 | 102 | 61 | O=C(Nc1ncnc2[nH]c(-c3cccnc3)nc12)c1ccccc1 | –
26 | 102 | 67 | O=C(Nc1ncnc2[nH]c(-c3ccccc3)nc12)c1ccccc1 | –
27 | 101 | – | CC(=O)Nc1ncnc2[nH]c(-c3ccccc3)nc12 | –
28 | 102 | 69 | N#Cc1cccc(-c2nc3c(NC(=O)c4ccccc4)ncnc3[nH]2)c1 | –
29 | 103 | 55 | CCCCC(=O)Nc1ncnc2[nH]c(/C=C/c3ccccc3)nc12 | –

More lines, now with the values behind:

Row | Compound | Activity [1] [%] | Activity [2] [%] | other results
30 | C(=C\c1nc2c(Nc3ccccc3)ncnc2[nH]1)/c1ccccc1 | 100 | 58 | –
31 | Cn1c(-c2cccc(F)c2)nc2c(NC(=O)C3CC3)ncnc21 | 99 | – | –
32 | Cn1c(-c2ccccc2)nc2c(NCc3cccnc3)ncnc21 | 99 | – | –
33 | Cn1c(-c2cccc(F)c2)nc2c(NCc3ccccc3)ncnc21 | 96 | – | –
34 | CCCCC(=O)Nc1ncnc2nc(-c3cccc(C#N)c3)[nH]c12 | – | – | IC50 [3]: 1220 nM
35 | Cn1c(-c2cccc(F)c2)nc2c(N3CCCC3)ncnc21 | 100 | – | –
36 | COc1ccc(C(=O)Nc2ncnc3[nH]c(-c4cccc(Cl)c4)nc23)cc1 | 102 | 71 | –
37 | COc1ccc(CNc2ncnc3nc(-c4ccc(Cl)cc4)n(C)c23)cc1 | 105 | – | –
38 | COc1ccc(CNc2ncnc3c2nc(-c2cccc(F)c2)n3C)cc1 | 96 | – | –
39 | O=C(Nc1ncnc2[nH]c(/C=C/c3ccccc3)nc12)c1ccccc1 | 104 | 47 | –
40 | Cn1c(-c2ccccc2)nc2c(N3CCCC3)ncnc21 | 100 | – | –
41 | O=C(Nc1ncnc2nc(-c3ccc4ccccc4c3)[nH]c12)C1CC1 | – | – | IC50 [3]: 169 nM
42 | Cn1c(-c2ccc([N+](=O)[O-])cc2)nc2ncnc(N3CCCC3)c21 | 101 | – | –
43 | COc1ccc(CNc2ncnc3nc(-c4cccc(F)c4)n(C)c23)cc1 | 99 | – | –
44 | O=C(Nc1ncnc2[nH]c(/C=C/c3ccccc3)nc12)c1cccc(Br)c1 | 101 | 92 | –
45 | N#Cc1cccc(-c2nc3ncnc(Nc4ccccc4)c3[nH]2)c1 | – | – | IC50 [3]: 26 nM

Row | Compound | Activity [1] [%] | Activity [2] [%] | other results
46 | COc1ccc(C(=O)Nc2ncnc3[nH]c(/C=C/c4ccccc4)nc23)cc1 | 104 | 96 | –
47 | c1cncc(-c2nc3c(OCC4CCCCC4)ncnc3[nH]2)c1 | 101 | – | –
48 | C(=C\c1nc2c(NCCN3CCOCC3)ncnc2[nH]1)/c1ccccc1 | 101 | 99 | –
49 | COc1ccc(CNc2ncnc3[nH]c(-c4cccnc4)nc23)cc1 | 95 | – | –
50 | c1cncc(-c2nc3c(OC4CCCC4)ncnc3[nH]2)c1 | 83 | 57 | –
51 | Cn1c(-c2ccc(Cl)cc2)nc2ncnc(N3CCCC3)c21 | 97 | – | –
52 | C(=C\c1nc2c(N3CCCC3)ncnc2[nH]1)/c1ccccc1 | 101 | 87 | –
53 | c1cncc(-c2nc3c(N4CCCC4)ncnc3[nH]2)c1 | 100 | – | –
54 | C(=C\c1nc2c(NCc3cccnc3)ncnc2[nH]1)/c1ccccc1 | 96 | 84 | –
55 | c1cncc(-c2nc3c(N4CCOCC4)ncnc3[nH]2)c1 | 71 | – | –
56 | c1ccc(Nc2ncnc3nc(-c4ccccc4)[nH]c23)cc1 | – | – | IC50 [3]: 16 nM
57 | c1cncc(CNc2ncnc3[nH]c(-c4cccnc4)nc23)c1 | 102 | – | –
58 | COc1ccc(CNc2ncnc3c2nc(-c2ccccc2)n3C)cc1 | 100 | – | –
59 | COc1ccc(-c2nc3ncnc(NCc4ccccc4)c3n2C)cc1 | 102 | – | –
60 | Cn1c(-c2ccc([N+](=O)[O-])cc2)nc2ncnc(NCc3ccccc3)c21 | 101 | – | –
61 | CN[C@@H]1C[C@H]2O[C@@](C)([C@@H]1OC)n1c3ccccc3c3c4c(c5c6ccccc6n2c5c31)C(=O)NC4 | 98.4 | – | –
